Assay results from patent US20230407243A1, “GENETIC PLATFORM TO INVESTIGATE THE FUNCTIONS OF BACTERIAL DRUG EFFLUX PUMPS” (priority 2022, published 2023).
Read-outs that look alike come from different tables or passages of the source.

Key:
Type in all cases: cell-based, Escherichia coli
[1] = system: EKO-35 porinated strain expressing acrB; assay: Checkerboard synergy (FICI), porinated strain
In short: (§1)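 MHB II, CLSI microdilution checkerboard, colony-resuspension inoculum, solvent controls per plate. MIC = no growth at OD600. FICI summed from FIC of PAβN/NMP and antibiotic; <0.5 synergistic, >2.0 antagonistic.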

[2] = system: EKO-35-Pore acrBD408A (functionally inactive AcrB variant); assay: Checkerboard synergy (FICI), porinated strain
In short: as §1

wild-type K-12-Pore = assay: Checkerboard synergy (FICI), porinated strain
In short: as §1

EKO-35-Pore = assay: Checkerboard synergy (FICI), porinated strain
In short: as §1

EKO-35 = system: EKO-35
In short: as §1

ΔtolC = system: ΔtolC
In short: as §1

EKO-35 acrBD408A = system: EKO-35 acrBD408A
In short: as §1

ΔtolC-Pore = system: ΔtolC-Pore
In short: as §1

[3] = EKO-35 acrB Pore, NMP + antibiotic
[4] = EKO-35 acrB Pore, PAβN + antibiotic
[5] = strain EKO-35 acrB Pore, NMP + antibiotic
[6] = strain EKO-35 acrB Pore, antibiotic alone
[7] = strain EKO-35 acrB Pore, antibiotic in combination with NMP
[8] = EKO-35 acrBD408A Pore, NMP + antibiotic
[9] = EKO-35 acrBD408A Pore, PAβN + antibiotic
[10] = strain EKO-35 acrBD408A Pore, NMP + antibiotic
[11] = strain EKO-35 acrBD408A Pore, antibiotic in combination with NMP
[12] = strain K-12 Pore, NMP + antibiotic
[13] = strain K-12 Pore, antibiotic alone
[14] = strain K-12 Pore, antibiotic in combination with NMP
[15] = porinated efflux-deficient strains
[16] = strain EKO-35 Pore, NMP + antibiotic
[17] = strain EKO-35 Pore, antibiotic alone
[18] = strain EKO-35, NMP + antibiotic
[19] = strain EKO-35, antibiotic alone
[20] = strain EKO-35, antibiotic in combination with NMP
[21] = strain ΔtolC, antibiotic in combination with NMP
[22] = EKO-35 acrBD408A, NMP + antibiotic
[23] = EKO-35 acrBD408A, PAβN + antibiotic
[24] = strain EKO-35 acrBD408A, NMP + antibiotic
[25] = strain EKO-35 acrBD408A, antibiotic alone
[26] = strain ΔtolC Pore, NMP + antibiotic
[27] = strain ΔtolC Pore, antibiotic alone
[28] = strain ΔtolC Pore, antibiotic in combination with NMP

## CC[C@H]1OC(=O)[C@H](C)[C@@H](O[C@H]2C[C@@](C)(OC)[C@@H](O)[C@H](C)O2)[C@H](C)[C@@H](O[C@@H]2O[C@H](C)C[C@H](N(C)C)[C@H]2O)[C@](C)(O)C[C@@H](C)C(=O)[C@H](C)[C@@H](O)[C@]1(C)O [erythromycin]
[1]; [3]
  Effect: Additive
  FICI: 0.563
[1]; [4]
  Effect: Synergistic
  FICI: 0.078
[1]; EKO-35 acrB Pore, antibiotic alone (PAβN checkerboard)
  MICb Alone: 32 µg/mL
[1]; EKO-35 acrB Pore, antibiotic in combination with PAβN
  MICb Combined: 0.5 µg/mL
[1]; [5]
  Effect: Additive (additive (FICI >0.5-1.0))
  FICI: 0.563
[1]; [6]
  MICb Alone: 8 µg/mL
[1]; [7]
  MICb Combined: 0.5 µg/mL
[2]; [8]
  Effect: Additive
  FICI: 0.735
[2]; [9]
  Effect: Additive
  FICI: 0.735
[2]; EKO-35 acrBD408A Pore, antibiotic alone (PAβN checkerboard)
  MICb Alone: 0.13 µg/mL
[2]; EKO-35 acrBD408A Pore, antibiotic in combination with PAβN
  MICb Combined: 0.063 µg/mL
[2]; [10]
  Effect: Additive (additive (FICI >0.5-1.0))
  FICI: 0.735
[2]; strain EKO-35 acrBD408A Pore, antibiotic alone
  MICb Alone: 0.13 µg/mL
[2]; [11]
  MICb Combined: 0.063 µg/mL
wild-type K-12-Pore; K-12 Pore, NMP + antibiotic
  FICI: 1.000
wild-type K-12-Pore; K-12 Pore, PAβN + antibiotic
  Effect: Synergistic
wild-type K-12-Pore; K-12 Pore, antibiotic alone (PAβN checkerboard)
  MICb Alone: 4 µg/mL
wild-type K-12-Pore; K-12 Pore, antibiotic in combination with PAβN
  MICb Combined: 0.25 µg/mL
wild-type K-12-Pore; [12]
  Effect: — (indifferent (FICI >1.0))
  FICI: 1.000
wild-type K-12-Pore; [13]
  MICb Alone: 16 µg/mL
wild-type K-12-Pore; [14]
  MICb Combined: 8 µg/mL
EKO-35-Pore; EKO-35 Pore, NMP + antibiotic
  Effect: Additive
  FICI: 0.770
EKO-35-Pore; EKO-35 Pore, PAβN + antibiotic
  Effect: Additive
  FICI: 0.610
EKO-35-Pore; EKO-35 Pore, antibiotic alone (PAβN checkerboard)
  MICb Alone: 0.13 µg/mL
EKO-35-Pore; EKO-35 Pore, antibiotic in combination with PAβN
  MICb Combined: 0.063 µg/mL
EKO-35-Pore; [15]
  interaction of NMP in combination with the labelled antibiotic (FICI): no longer synergistic
  interaction of PAβN in combination with the labelled antibiotic (FICI): no longer synergistic
EKO-35-Pore; [16]
  Effect: Additive (additive (FICI >0.5-1.0))
  FICI: 0.770
EKO-35-Pore; [17]
  MICb Alone: 0.25 µg/mL
EKO-35-Pore; strain EKO-35 Pore, antibiotic in combination with NMP
  MICb Combined: 0.13 µg/mL
EKO-35; EKO-35, NMP + antibiotic
  Effect: Synergistic
EKO-35; EKO-35, PAβN + antibiotic
  Effect: Synergistic
  FICI: 0.093
EKO-35; EKO-35, antibiotic alone (PAβN checkerboard)
  MICb Alone: 2 µg/mL
EKO-35; EKO-35, antibiotic in combination with PAβN
  MICb Combined: 0.06 µg/mL
EKO-35; EKO-35 and EKO-35 acrBD408A
  interaction of NMP in combination with the labelled antibiotic (FICI): low-level synergy
EKO-35; efflux-deficient strains EKO-35, EKO-35 acrBD408A, ΔtolC
  interaction of PAβN in combination with the labelled antibiotic (FICI): synergized
EKO-35; [18]
  Effect: Synergistic (Synergy (FICI ≤0.5))
EKO-35; [19]
  MICb Alone: 2 µg/mL
EKO-35; [20]
  MICb Combined: 0.25 µg/mL
ΔtolC; strain ΔtolC, NMP + antibiotic
  Effect: — (indifferent (FICI >1.0))
  FICI: 1.000
ΔtolC; strain ΔtolC, antibiotic alone
  MICb Alone: 4 µg/mL
ΔtolC; [21]
  MICb Combined: 2 µg/mL
ΔtolC; ΔtolC, NMP + antibiotic
  FICI: 1.000
ΔtolC; ΔtolC, PAβN + antibiotic
  Effect: Synergistic
  FICI: 0.188
ΔtolC; ΔtolC, antibiotic alone (PAβN checkerboard)
  MICb Alone: 4 µg/mL
ΔtolC; ΔtolC, antibiotic in combination with PAβN
  MICb Combined: 0.25 µg/mL
EKO-35 acrBD408A; [22]
  Effect: Synergistic
  FICI: 0.500
EKO-35 acrBD408A; [23]
  Effect: Synergistic
  FICI: 0.190
EKO-35 acrBD408A; EKO-35 acrBD408A, antibiotic alone (PAβN checkerboard)
  MICb Alone: 2 µg/mL
EKO-35 acrBD408A; EKO-35 acrBD408A, antibiotic in combination with PAβN
  MICb Combined: 0.13 µg/mL
EKO-35 acrBD408A; [24]
  Effect: Synergistic (Synergy (FICI ≤0.5))
  FICI: 0.500
EKO-35 acrBD408A; [25]
  MICb Alone: 2 µg/mL
EKO-35 acrBD408A; strain EKO-35 acrBD408A, antibiotic in combination with NMP
  MICb Combined: 0.5 µg/mL
ΔtolC-Pore; [26]
  Effect: Synergistic (Synergy (FICI ≤0.5))
  FICI: 0.625
ΔtolC-Pore; [27]
  MICb Alone: 4 µg/mL
ΔtolC-Pore; [28]
  MICb Combined: 0.5 µg/mL
ΔtolC-Pore; ΔtolC Pore, NMP + antibiotic
  Effect: Synergistic
  FICI: 0.625
ΔtolC-Pore; ΔtolC Pore, PAβN + antibiotic
  Effect: Synergistic
  FICI: 0.188
ΔtolC-Pore; ΔtolC Pore, antibiotic alone (PAβN checkerboard)
  MICb Alone: 1 µg/mL
ΔtolC-Pore; ΔtolC Pore, antibiotic in combination with PAβN
  MICb Combined: 0.063 µg/mL

## CC[n+]1c(-c2ccccc2)c2cc(N)ccc2c2ccc(N)cc21 [ethidium bromide]
[1]; [3]
  FICI: 0.191
[1]; [5]
  Effect: Synergistic (Synergy (FICI ≤0.5))
  FICI: 0.191
[1]; [6]
  MICb Alone: 15.6 µg/mL
[1]; [7]
  MICb Combined: 2 µg/mL
[2]; [8]
  FICI: 1.000
[2]; [10]
  Effect: — (indifferent (FICI >1.0))
  FICI: 1.000
[2]; [11]
  MICb Combined: 0.122 µg/mL
wild-type K-12-Pore; [12]
  Effect: Synergistic (Synergy (FICI ≤0.5))
wild-type K-12-Pore; [13]
  MICb Alone: 250 µg/mL
wild-type K-12-Pore; [14]
  MICb Combined: 31.3 µg/mL
EKO-35-Pore; EKO-35 Pore, NMP + antibiotic
  FICI: 0.508
EKO-35-Pore; [16]
  Effect: Additive (additive (FICI >0.5-1.0))
  FICI: 0.508
EKO-35-Pore; [17]
  MICb Alone: 0.488 µg/mL
EKO-35; EKO-35, NMP + antibiotic
  FICI: 2.000
EKO-35; [18]
  Effect: — (indifferent (FICI >1.0))
  FICI: 2.000
EKO-35; [19]
  MICb Alone: 0.244 µg/mL
EKO-35; [20]
  MICb Combined: 0.244 µg/mL
ΔtolC; strain ΔtolC, NMP + antibiotic
  Effect: Synergistic (Synergy (FICI ≤0.5))
  FICI: 0.281
ΔtolC; strain ΔtolC, antibiotic alone
  MICb Alone: 7.81 µg/mL
ΔtolC; [21]
  MICb Combined: 1.95 µg/mL
ΔtolC; ΔtolC, NMP + antibiotic
  FICI: 0.281
EKO-35 acrBD408A; [22]
  FICI: 0.750
EKO-35 acrBD408A; [24]
  Effect: Additive (additive (FICI >0.5-1.0))
  FICI: 0.750
EKO-35 acrBD408A; [25]
  MICb Alone: 0.488 µg/mL
ΔtolC-Pore; [26]
  Effect: Additive (additive (FICI >0.5-1.0))
  FICI: 0.500
ΔtolC-Pore; [27]
  MICb Alone: 1.95 µg/mL
ΔtolC-Pore; [28]
  MICb Combined: 0.488 µg/mL
ΔtolC-Pore; ΔtolC Pore, NMP + antibiotic
  FICI: 0.500
